pIC50: −log10 of the molar value.

One assay has as its system NK-1 receptor.
Assay: not given
Particulars: phenylbenzoquinone-induced writhing and formalin test; Garret et al; cited from earlier work. Background: Writhing tests count abdominal constrictions after an irritant is injected.
Consider `COc1ccccc1CC(=N)N1C[C@@H]2C(=O)CCC(c3ccccc3)(c3ccccc3)[C@@H]2C1` [RP 67,580], for which the analgesia entry was “produced analgesia with potency comparable to that of morphine”.

The target in the next assay is N-type calcium channel (Homo sapiens, UniProt Q00975). In words: N-Channel FLIPR assay (IMR32 cells, 80 mM K+ evoked calcium flux). The format is cell-based. As to conditions: unit inferred.
N-type calcium channel, sequence (Q00975 whole entry): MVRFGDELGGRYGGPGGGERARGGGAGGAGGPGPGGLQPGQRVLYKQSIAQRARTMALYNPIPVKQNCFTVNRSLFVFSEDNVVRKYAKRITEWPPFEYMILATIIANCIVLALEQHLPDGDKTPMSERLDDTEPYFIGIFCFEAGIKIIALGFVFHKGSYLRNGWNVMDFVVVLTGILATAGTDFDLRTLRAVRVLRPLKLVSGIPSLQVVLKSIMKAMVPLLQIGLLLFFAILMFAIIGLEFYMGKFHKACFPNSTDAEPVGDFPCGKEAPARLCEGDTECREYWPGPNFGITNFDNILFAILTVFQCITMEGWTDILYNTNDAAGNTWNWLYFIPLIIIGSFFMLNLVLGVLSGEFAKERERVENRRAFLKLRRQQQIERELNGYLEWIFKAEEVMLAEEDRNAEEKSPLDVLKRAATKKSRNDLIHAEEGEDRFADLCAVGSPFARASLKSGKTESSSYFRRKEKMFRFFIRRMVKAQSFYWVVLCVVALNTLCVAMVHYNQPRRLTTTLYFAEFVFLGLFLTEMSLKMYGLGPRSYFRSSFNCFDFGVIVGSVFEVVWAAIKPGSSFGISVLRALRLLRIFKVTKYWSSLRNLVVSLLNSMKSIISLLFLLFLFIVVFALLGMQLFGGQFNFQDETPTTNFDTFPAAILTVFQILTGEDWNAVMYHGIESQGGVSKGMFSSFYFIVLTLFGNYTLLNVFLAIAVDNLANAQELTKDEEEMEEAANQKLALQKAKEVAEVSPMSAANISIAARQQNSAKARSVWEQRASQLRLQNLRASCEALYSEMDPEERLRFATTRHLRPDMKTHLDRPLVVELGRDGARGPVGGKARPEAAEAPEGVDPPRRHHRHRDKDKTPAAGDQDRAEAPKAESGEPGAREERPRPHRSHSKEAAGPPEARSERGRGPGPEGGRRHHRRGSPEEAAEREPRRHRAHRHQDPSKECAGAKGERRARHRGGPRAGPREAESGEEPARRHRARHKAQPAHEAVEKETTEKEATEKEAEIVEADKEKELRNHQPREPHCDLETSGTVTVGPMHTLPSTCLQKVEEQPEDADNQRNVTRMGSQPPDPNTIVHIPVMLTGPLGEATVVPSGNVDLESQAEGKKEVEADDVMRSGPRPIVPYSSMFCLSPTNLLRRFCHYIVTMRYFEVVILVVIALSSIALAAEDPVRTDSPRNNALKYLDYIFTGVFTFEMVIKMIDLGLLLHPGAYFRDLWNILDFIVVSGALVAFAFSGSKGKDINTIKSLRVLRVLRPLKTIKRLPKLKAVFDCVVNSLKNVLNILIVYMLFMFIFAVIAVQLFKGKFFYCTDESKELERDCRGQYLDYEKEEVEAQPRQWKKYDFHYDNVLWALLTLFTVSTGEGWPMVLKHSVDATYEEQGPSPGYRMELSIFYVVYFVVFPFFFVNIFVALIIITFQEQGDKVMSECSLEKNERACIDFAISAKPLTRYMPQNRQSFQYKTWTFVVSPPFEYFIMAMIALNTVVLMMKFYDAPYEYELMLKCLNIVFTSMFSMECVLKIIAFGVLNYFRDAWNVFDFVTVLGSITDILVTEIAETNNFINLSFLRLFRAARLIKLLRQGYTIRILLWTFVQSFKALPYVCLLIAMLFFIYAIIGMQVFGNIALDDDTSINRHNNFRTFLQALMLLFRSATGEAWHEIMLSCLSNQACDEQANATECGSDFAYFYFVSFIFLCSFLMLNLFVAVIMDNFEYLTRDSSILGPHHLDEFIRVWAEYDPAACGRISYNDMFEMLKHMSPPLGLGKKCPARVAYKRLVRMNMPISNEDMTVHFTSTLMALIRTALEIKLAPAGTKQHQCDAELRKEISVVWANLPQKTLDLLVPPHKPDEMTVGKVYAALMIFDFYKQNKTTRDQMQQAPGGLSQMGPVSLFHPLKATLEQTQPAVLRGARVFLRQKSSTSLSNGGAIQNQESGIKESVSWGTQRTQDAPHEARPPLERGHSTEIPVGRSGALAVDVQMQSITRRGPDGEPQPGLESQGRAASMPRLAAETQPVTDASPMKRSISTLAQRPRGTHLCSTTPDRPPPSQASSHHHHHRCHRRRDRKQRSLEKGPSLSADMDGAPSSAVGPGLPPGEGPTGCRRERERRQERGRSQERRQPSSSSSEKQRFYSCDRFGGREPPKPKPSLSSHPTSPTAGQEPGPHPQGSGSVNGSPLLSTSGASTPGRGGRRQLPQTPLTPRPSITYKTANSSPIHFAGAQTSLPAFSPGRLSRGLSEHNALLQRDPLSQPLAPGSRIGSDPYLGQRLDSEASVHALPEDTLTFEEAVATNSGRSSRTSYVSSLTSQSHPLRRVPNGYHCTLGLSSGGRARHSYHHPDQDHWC
N-type calcium channel, sequence (P54289 25-1103 partner): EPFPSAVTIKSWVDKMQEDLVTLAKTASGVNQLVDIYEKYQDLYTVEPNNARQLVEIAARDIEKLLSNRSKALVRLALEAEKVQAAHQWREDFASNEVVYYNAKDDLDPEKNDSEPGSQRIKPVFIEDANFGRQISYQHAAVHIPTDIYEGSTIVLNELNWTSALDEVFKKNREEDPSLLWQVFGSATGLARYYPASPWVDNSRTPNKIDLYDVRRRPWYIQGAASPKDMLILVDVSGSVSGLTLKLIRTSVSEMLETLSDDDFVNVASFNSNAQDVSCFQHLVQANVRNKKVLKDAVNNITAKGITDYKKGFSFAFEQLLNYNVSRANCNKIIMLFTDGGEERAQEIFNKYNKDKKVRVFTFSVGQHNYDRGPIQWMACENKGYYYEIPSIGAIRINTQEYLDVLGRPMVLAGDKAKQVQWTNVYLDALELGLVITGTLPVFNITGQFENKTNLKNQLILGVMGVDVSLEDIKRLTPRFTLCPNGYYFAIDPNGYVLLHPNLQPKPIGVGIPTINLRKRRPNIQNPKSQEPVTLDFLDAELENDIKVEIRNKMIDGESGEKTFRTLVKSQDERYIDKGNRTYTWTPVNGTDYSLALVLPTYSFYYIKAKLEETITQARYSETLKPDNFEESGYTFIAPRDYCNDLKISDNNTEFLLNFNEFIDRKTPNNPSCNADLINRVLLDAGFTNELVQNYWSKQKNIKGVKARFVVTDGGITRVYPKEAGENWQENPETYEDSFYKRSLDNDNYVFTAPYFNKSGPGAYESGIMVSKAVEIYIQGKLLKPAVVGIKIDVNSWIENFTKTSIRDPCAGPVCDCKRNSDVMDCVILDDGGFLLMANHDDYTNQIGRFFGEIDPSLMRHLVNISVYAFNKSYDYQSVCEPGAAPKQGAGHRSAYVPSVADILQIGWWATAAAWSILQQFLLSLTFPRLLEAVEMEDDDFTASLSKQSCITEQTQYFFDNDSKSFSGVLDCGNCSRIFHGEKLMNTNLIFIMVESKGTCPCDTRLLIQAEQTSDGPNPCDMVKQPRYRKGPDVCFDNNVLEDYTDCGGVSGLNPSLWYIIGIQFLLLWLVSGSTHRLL
N-type calcium channel, sequence (P54284 whole entry partner): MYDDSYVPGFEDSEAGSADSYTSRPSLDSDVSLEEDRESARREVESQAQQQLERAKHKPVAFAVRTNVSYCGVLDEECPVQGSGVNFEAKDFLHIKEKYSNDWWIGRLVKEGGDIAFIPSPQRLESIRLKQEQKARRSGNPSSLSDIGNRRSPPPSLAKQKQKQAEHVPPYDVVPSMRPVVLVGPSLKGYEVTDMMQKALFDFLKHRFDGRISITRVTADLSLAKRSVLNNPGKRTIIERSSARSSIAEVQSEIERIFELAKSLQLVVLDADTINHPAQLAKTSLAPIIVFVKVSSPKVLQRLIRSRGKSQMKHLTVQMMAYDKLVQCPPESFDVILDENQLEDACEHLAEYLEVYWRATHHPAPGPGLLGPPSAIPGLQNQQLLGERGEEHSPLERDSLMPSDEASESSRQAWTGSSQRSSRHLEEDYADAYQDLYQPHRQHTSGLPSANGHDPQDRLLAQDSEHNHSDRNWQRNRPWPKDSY
With `CNc1cc(-c2cccc(F)c2)nc2ccc(-c3ccccc3Cl)cc12` [Example 12, 2-(3-fluorophenyl)-6-(2-chlorophenyl)-4-methylaminoquinoline], the pIC50 was 4.98.

For `CNc1cc(-c2cccc(F)c2)nc2ccc(-c3ccccc3)cc12` [Example 13, 2-(3-fluorophenyl)-6-phenyl-4-methylaminoquinoline], the pIC50 is 5.07.

On to `CNc1cc(-c2cccc(F)c2)nc2ccc(-c3ccccc3C)cc12` [Example 14, 2-(3-fluorophenyl)-6-(2-methylphenyl)-4-methylaminoquinoline], for which the pIC50 is 5.05.

Take `CNc1cc(-c2cccc(F)c2)nc2ccc(-c3ccccc3C=O)cc12` [Example 15, 2-[2-(3-fluorophenyl)-4-(methylamino)-6-quinolinyl]-benzaldehyde]: the pIC50 was 5.27.

With `CNc1cc(-c2cccc(F)c2)nc2ccc(-c3ccccc3OC)cc12` [Example 16, 2-(3-fluorophenyl)-6-(2-methoxyphenyl)-4-methylaminoquinoline], the pIC50 was 5.24.

One may read the pIC50 as −log10 of the IC50, conventionally taken in molar units.

The record behind these values is patent publication US6841680B2, “N-type calcium channel antagonists for the treatment of pain” (AstraZeneca AB, priority 2000, dated 2005).
